Measurements from ChEMBL document CHEMBL1134201, “Exploring the relationship between binding modes of 9-(aminomethyl)-9,10-dihydroanthracene and cyproheptadine analogues at the 5-HT2A serotonin receptor” (Bioorg Med Chem Lett, 2001).

How the values were obtained:
[1] = biological target: T1, 5-hydroxytryptamine receptor 2A (Rattus norvegicus, UniProt P14842); experiment: Binding affinity against 5-hydroxytryptamine 2A receptor expressed NIH3T3 cells using [3H]ketanserin; assay type: cell-based
[2] = biological target: T1, 5-hydroxytryptamine receptor 2A; experiment: Binding affinity against 5-hydroxytryptamine 2A receptor from rat forebrain using [3H]ketanserin as radioligand

T1 sequence (P14842 whole entry): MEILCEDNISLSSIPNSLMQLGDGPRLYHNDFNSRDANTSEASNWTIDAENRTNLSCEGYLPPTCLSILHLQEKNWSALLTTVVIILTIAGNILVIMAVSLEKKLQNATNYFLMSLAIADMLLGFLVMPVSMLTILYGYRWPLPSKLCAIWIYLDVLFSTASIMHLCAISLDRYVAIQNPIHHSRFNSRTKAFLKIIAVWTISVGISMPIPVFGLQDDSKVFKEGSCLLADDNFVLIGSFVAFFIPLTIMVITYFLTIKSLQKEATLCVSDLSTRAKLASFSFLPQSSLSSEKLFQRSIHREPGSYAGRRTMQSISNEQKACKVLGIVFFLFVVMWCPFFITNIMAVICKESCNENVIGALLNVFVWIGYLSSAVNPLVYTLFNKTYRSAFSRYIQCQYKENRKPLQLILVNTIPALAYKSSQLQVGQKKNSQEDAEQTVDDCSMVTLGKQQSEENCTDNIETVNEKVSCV

| Structure (SMILES) | Ki [1] [nM] | Ki [2] [nM] |
| --- | --- | --- |
| NCC1c2ccccc2Sc2ccccc21 | 65 | – |
| CC(=C1CCN(C)CC1)c1ccccc1 | – | 355 |
| CN1CCC(=C2c3ccccc3CCc3ccccc32)CC1 | – | 9 |
| CN1CCC(=C2c3ccccc3Sc3ccccc32)CC1 [PIMETHIXENE] | – | 2.5 |
| CN1CCC(=C2c3ccccc3-c3ccccc32)CC1 | – | 199 |
| NCC1c2ccccc2CCc2ccccc21 | 112 | – |
| CN1CCC(=C(c2ccccc2)c2ccccc2)CC1 | – | 13 |
| NCC1c2ccccc2Oc2ccccc21 | 170 | – |
| CN1CCC(=C2c3ccccc3Cc3ccccc32)CC1 | 0.7 | – |
| CN1CCC(=C2c3ccccc3Oc3ccccc32)CC1 | – | 4 |
